Assay results published in patent US4314998A, “6-Deoxyglucosamine-peptide derivatives, their production and use” (Takeda Chemical Industries, Ltd., priority 1979, dated 1982).

Test system: Meth-A fibrosarcoma cells
Experiment: Inhibition of growth of Meth-A fibrosarcoma in mice (compound mixed with tumor cells)
Type: in vivo
Details: 100 μg mixed with 5×10^4 Meth-A fibrosarcoma cells, intracutaneous, female Balb/C mice
Protocol: For example, 100 μg of the compounds obtained in accordance with the present invention suspended in a phosphate-buffered saline and mixed with 5×10^4 Meth-A fibrosarcoma cells, followed by intracutaneous administration to female Balb/C mice. The effects to inhibit the growth of Meth-A were examined at 1 week intervals until the 4th week after the administration.

Measured: The number of tumor-free mice/the number of mice tested

2-(2-acetamido-2,6-dideoxy-6-mycoloylamino-D-glucopyranos-3-O-yl)-D-propionyl-L-alanyl-D-isoglutamine [Example 7]
10/10: week 2 | week 3 | week 4

2-(2-acetamido-2,6-dideoxy-6-mycoloylamino-D-glucopyranos-3-O-yl)-D-propionyl-L-valyl-D-isoglutamine [Example 9]
10/10: week 1 | week 2 | week 3 | week 4
